Laboratory results reported in US20230085307A1, “PYRIDAZINONE COMPOUND AND HERBICIDE” (NISSAN CHEMICAL CORPORATION, priority 2019, published 2023).

What was measured:
late watergrass = assay: Test Example 1: herbicidal activity, application before weed generation under submerged conditions (Table 16, symbol A); type: in vivo, late watergrass (Echinochloa oryzicola); details: amount of applied herbicide 320 g/ha
Outline: (§1)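 Submerged Wagner pots (alluvial soil, 4 cm water) sown with weed seeds and planted with 2.5-leaf rice seedlings; emulsifiable concentrate diluted in water applied to water surface on sowing day. Held in greenhouse at 25-30 °C; injury scored 0-5 by herbicidal rate after three weeks.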

Japanese bulrush = assay: Test Example 1: herbicidal activity, application before weed generation under submerged conditions (Table 16, symbol B); type: in vivo, Japanese bulrush (Schoenoplectus juncoides); details: amount of applied herbicide 320 g/ha
Outline: as §1

oval-leafed pondweed = assay: Test Example 1: herbicidal activity, application before weed generation under submerged conditions (Table 16, symbol C); type: in vivo, oval-leafed pondweed (Monochoria vaginalis); details: amount of applied herbicide 320 g/ha
Outline: as §1

barnyard grass [1] = assay: Test Example 3: herbicidal effect by foliage application, Wagner pot (Table 18, symbol H); type: in vivo, barnyard grass (Echinochloa crus-galli)
Outline: (§2)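 Plants were sown in alluvial soil held under 0.1–0.5 cm standing water and grown 14 days in a greenhouse at 25–30 °C. An emulsifiable formulation, water-diluted to the set dose, was then sprayed onto the foliage, and effects were scored three weeks later using previously defined criteria.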

Chinese sprangletop = assay: Test Example 3: herbicidal effect by foliage application, Wagner pot (Table 18, symbol D); type: in vivo, chinese sprangletop (Leptochloa chinensis)
Outline: as §2

rice flat sedge = assay: Test Example 3: herbicidal effect by foliage application, Wagner pot (Table 18, symbol E); type: in vivo, rice flat sedge (Cyperus iria)
Outline: as §2

southern crabgrass [2] = assay: Test Example 4: herbicidal effect by soil treatment (Table 19, symbol F); type: in vivo, southern crabgrass (Digitaria ciliaris); details: amount of applied herbicide 320 g/ha
Outline: (§3)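 In this soil treatment, the formulated compound reached the seeds only through the soil: seeds were buried about 1.5 cm deep in sterilized diluvial soil, then the diluted emulsion was sprayed over the surface. After three weeks at 25° C. to 30° C. in a greenhouse, effects were graded on criteria from an earlier test.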

green foxtail [3] = assay: Test Example 4: herbicidal effect by soil treatment (Table 19, symbol G); type: in vivo, green foxtail (Setaria viridis); details: amount of applied herbicide 320 g/ha
Outline: as §3

barnyard grass [4] = assay: Test Example 4: herbicidal effect by soil treatment (Table 19, symbol H); type: in vivo, barnyard grass (Echinochloa crus-galli); details: amount of applied herbicide 320 g/ha
Outline: as §3

wild oat [5] = assay: Test Example 4: herbicidal effect by soil treatment (Table 19, symbol I); type: in vivo, wild oat (Avena fatua); details: amount of applied herbicide 320 g/ha
Outline: as §3

blackgrass [6] = assay: Test Example 4: herbicidal effect by soil treatment (Table 19, symbol J); type: in vivo, blackgrass (Alopecurus myosuroides); details: amount of applied herbicide 320 g/ha
Outline: as §3

Italian ryegrass [7] = assay: Test Example 4: herbicidal effect by soil treatment (Table 19, symbol K); type: in vivo, Italian ryegrass (Lolium multiflorum); details: amount of applied herbicide 320 g/ha
Outline: as §3

windgrass [8] = assay: Test Example 4: herbicidal effect by soil treatment (Table 19, symbol L); type: in vivo, windgrass (Apera spica-venti); details: amount of applied herbicide 320 g/ha
Outline: as §3

velvetleaf [9] = assay: Test Example 4: herbicidal effect by soil treatment (Table 19, symbol M); type: in vivo, velvetleaf (Abutilon theophrasti); details: amount of applied herbicide 320 g/ha
Outline: as §3

redroot pigweed [10] = assay: Test Example 4: herbicidal effect by soil treatment (Table 19, symbol N); type: in vivo, redroot pigweed (Amaranthus retroflexus); details: amount of applied herbicide 320 g/ha
Outline: as §3

lambsquarters [11] = assay: Test Example 4: herbicidal effect by soil treatment (Table 19, symbol O); type: in vivo, lambsquarters (Chenopodium album); details: amount of applied herbicide 320 g/ha
Outline: as §3

chickweed [12] = assay: Test Example 4: herbicidal effect by soil treatment (Table 19, symbol P); type: in vivo, common chickweed (Stellaria media); details: amount of applied herbicide 320 g/ha
Outline: as §3

persian speedwell [13] = assay: Test Example 4: herbicidal effect by soil treatment (Table 19, symbol R); type: in vivo, Persian speedwell (Veronica persica); details: amount of applied herbicide 320 g/ha
Outline: as §3

southern crabgrass [14] = assay: Test Example 5: herbicidal effect by foliage application, plastic box (Table 20, symbol F); type: in vivo, southern crabgrass (Digitaria ciliaris); details: foliage application, 320 g/ha, three weeks after application
Outline: (§4)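 Plants were sown into sterilized diluvial soil under about 1.5 cm cover and kept in a greenhouse at 25° C. to 30° C. Fourteen days on, foliage received an even spray of the diluted emulsion. Herbicidal or crop effect was judged three weeks afterwards.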

green foxtail [15] = assay: Test Example 5: herbicidal effect by foliage application, plastic box (Table 20, symbol G); type: in vivo, green foxtail (Setaria viridis); details: foliage application, 320 g/ha, three weeks after application
Outline: as §4

barnyard grass [16] = assay: Test Example 5: herbicidal effect by foliage application, plastic box (Table 20, symbol H); type: in vivo, barnyard grass (Echinochloa crus-galli); details: foliage application, 320 g/ha, three weeks after application
Outline: as §4

wild oat [17] = assay: Test Example 5: herbicidal effect by foliage application, plastic box (Table 20, symbol I); type: in vivo, wild oat (Avena fatua); details: foliage application, 320 g/ha, three weeks after application
Outline: as §4

blackgrass [18] = assay: Test Example 5: herbicidal effect by foliage application, plastic box (Table 20, symbol J); type: in vivo, blackgrass (Alopecurus myosuroides); details: foliage application, 320 g/ha, three weeks after application
Outline: as §4

Italian ryegrass [19] = assay: Test Example 5: herbicidal effect by foliage application, plastic box (Table 20, symbol K); type: in vivo, Italian ryegrass (Lolium multiflorum); details: foliage application, 320 g/ha, three weeks after application
Outline: as §4

windgrass [20] = assay: Test Example 5: herbicidal effect by foliage application, plastic box (Table 20, symbol L); type: in vivo, windgrass (Apera spica-venti); details: foliage application, 320 g/ha, three weeks after application
Outline: as §4

velvetleaf [21] = assay: Test Example 5: herbicidal effect by foliage application, plastic box (Table 20, symbol M); type: in vivo, velvetleaf (Abutilon theophrasti); details: foliage application, 320 g/ha, three weeks after application
Outline: as §4

redroot pigweed [22] = assay: Test Example 5: herbicidal effect by foliage application, plastic box (Table 20, symbol N); type: in vivo, redroot pigweed (Amaranthus retroflexus); details: foliage application, 320 g/ha, three weeks after application
Outline: as §4

lambsquarters [23] = assay: Test Example 5: herbicidal effect by foliage application, plastic box (Table 20, symbol O); type: in vivo, lambsquarters (Chenopodium album); details: foliage application, 320 g/ha, three weeks after application
Outline: as §4

chickweed [24] = assay: Test Example 5: herbicidal effect by foliage application, plastic box (Table 20, symbol P); type: in vivo, common chickweed (Stellaria media); details: foliage application, 320 g/ha, three weeks after application
Outline: as §4

persian speedwell [25] = assay: Test Example 5: herbicidal effect by foliage application, plastic box (Table 20, symbol R); type: in vivo, Persian speedwell (Veronica persica); details: foliage application, 320 g/ha, three weeks after application
Outline: as §4

[26] = amount of applied herbicide 320 g/ha

SMILES | Herbicidal effect, A: late watergrass (late watergrass) | Herbicidal effect, B: Japanese bulrush (Japanese bulrush) | Herbicidal effect, C: oval-leafed pondweed (oval-leafed pondweed) | F: southern crabgrass, herbicidal effect grade (southern crabgrass [14]) | G: green foxtail, herbicidal effect grade (green foxtail [15]) | H: barnyard grass, herbicidal effect grade (barnyard grass [16]) | I: wild oat, herbicidal effect grade (wild oat [17]) | J: blackgrass, herbicidal effect grade (blackgrass [18]) | K: Italian ryegrass, herbicidal effect grade (Italian ryegrass [19]) | L: windgrass, herbicidal effect grade (windgrass [20]) | M: velvetleaf, herbicidal effect grade (velvetleaf [21]) | N: redroot pigweed, herbicidal effect grade (redroot pigweed [22]) | O: lambsquarters, herbicidal effect grade (lambsquarters [23]) | P: chickweed, herbicidal effect grade (chickweed [24]) | R: persian speedwell, herbicidal effect grade (persian speedwell [25]) | further results
CCCC(=O)Oc1c(CC)nn(C)c(=O)c1-c1c(-c2ccc(F)cc2)sc2ccc(F)cc12 [2-407] | 3 (Herbicidal rate of 40% or more and less than 70%) | 0 (Herbicidal rate of 5% or less (almost no effect)) | 0 (Herbicidal rate of 5% or less (almost no effect)) | 0 (Herbicidal rate of 5% or less (almost no effect)) | 5 (Herbicidal rate of 90% or more (almost completely withered)) | 3 (Herbicidal rate of 40% or more and less than 70%) | 0 (Herbicidal rate of 5% or less (almost no effect)) | 0 (Herbicidal rate of 5% or less (almost no effect)) | 3 (Herbicidal rate of 40% or more and less than 70%) | 0 (Herbicidal rate of 5% or less (almost no effect)) | 5 (Herbicidal rate of 90% or more (almost completely withered)) | 5 (Herbicidal rate of 90% or more (almost completely withered)) | 3 (Herbicidal rate of 40% or more and less than 70%) | 5 (Herbicidal rate of 90% or more (almost completely withered)) | 5 (Herbicidal rate of 90% or more (almost completely withered)) | herbicidal effect on H: barnyard grass (barnyard grass [1]; [26]): 5 (Herbicidal rate of 90% or more (almost completely withered)); herbicidal effect on D: Chinese sprangletop (Chinese sprangletop; [26]): 4 (Herbicidal rate of 70% or more and less than 90%); herbicidal effect on E: rice flat sedge (rice flat sedge; [26]): 4 (Herbicidal rate of 70% or more and less than 90%); herbicidal effect, F: southern crabgrass (southern crabgrass [2]): 0 (Herbicidal rate of 5% or less (almost no effect)); herbicidal effect, G: green foxtail (green foxtail [3]): 1 (Herbicidal rate of 5% or more and less than 20%); herbicidal effect, H: barnyard grass (barnyard grass [4]): 0 (Herbicidal rate of 5% or less (almost no effect)); herbicidal effect, I: wild oat (wild oat [5]): 0 (Herbicidal rate of 5% or less (almost no effect)); herbicidal effect, J: blackgrass (blackgrass [6]): 0 (Herbicidal rate of 5% or less (almost no effect)); herbicidal effect, K: Italian ryegrass (Italian ryegrass [7]): 0 (Herbicidal rate of 5% or less (almost no effect)); herbicidal effect, L: windgrass (windgrass [8]): 0 (Herbicidal rate of 5% or less (almost no effect)); herbicidal effect, M: velvetleaf (velvetleaf [9]): 0 (Herbicidal rate of 5% or less (almost no effect)); herbicidal effect, N: redroot pigweed (redroot pigweed [10]): 3 (Herbicidal rate of 40% or more and less than 70%); herbicidal effect, O: lambsquarters (lambsquarters [11]): 1 (Herbicidal rate of 5% or more and less than 20%); herbicidal effect, P: chickweed (chickweed [12]): 1 (Herbicidal rate of 5% or more and less than 20%); herbicidal effect, R: persian speedwell (persian speedwell [13]): 0 (Herbicidal rate of 5% or less (almost no effect))
Cc1nn(C)c(=O)c(-c2c(-c3ccc(OC(C)C)cc3)sc3cc(Cl)ccc23)c1O [3-041] | 2 (Herbicidal rate of 20% or more and less than 40%) | 0 (Herbicidal rate of 5% or less (almost no effect)) | 0 (Herbicidal rate of 5% or less (almost no effect)) | 0 (Herbicidal rate of 5% or less (almost no effect)) | 0 (Herbicidal rate of 5% or less (almost no effect)) | 0 (Herbicidal rate of 5% or less (almost no effect)) | 0 (Herbicidal rate of 5% or less (almost no effect)) | 0 (Herbicidal rate of 5% or less (almost no effect)) | 0 (Herbicidal rate of 5% or less (almost no effect)) | 0 (Herbicidal rate of 5% or less (almost no effect)) | 0 (Herbicidal rate of 5% or less (almost no effect)) | 2 (Herbicidal rate of 20% or more and less than 40%) | 1 (Herbicidal rate of 5% or more and less than 20%) | 3 (Herbicidal rate of 40% or more and less than 70%) | 5 (Herbicidal rate of 90% or more (almost completely withered)) | herbicidal effect on barnyard grass (H) (barnyard grass [1]; 320 g/ha): 2 (Herbicidal rate of 20% or more and less than 40%); herbicidal effect on Chinese sprangletop (D) (Chinese sprangletop; 320 g/ha): 0 (Herbicidal rate of 5% or less (almost no effect)); herbicidal effect on rice flat sedge (E) (rice flat sedge; 320 g/ha): 1 (Herbicidal rate of 5% or more and less than 20%); F: southern crabgrass, herbicidal effect grade (southern crabgrass [2]): 0 (Herbicidal rate of 5% or less (almost no effect)); G: green foxtail, herbicidal effect grade (green foxtail [3]): 0 (Herbicidal rate of 5% or less (almost no effect)); H: barnyard grass, herbicidal effect grade (barnyard grass [4]): 0 (Herbicidal rate of 5% or less (almost no effect)); I: wild oat, herbicidal effect grade (wild oat [5]): 0 (Herbicidal rate of 5% or less (almost no effect)); J: blackgrass, herbicidal effect grade (blackgrass [6]): 0 (Herbicidal rate of 5% or less (almost no effect)); K: Italian ryegrass, herbicidal effect grade (Italian ryegrass [7]): 0 (Herbicidal rate of 5% or less (almost no effect)); L: windgrass, herbicidal effect grade (windgrass [8]): 0 (Herbicidal rate of 5% or less (almost no effect)); M: velvetleaf, herbicidal effect grade (velvetleaf [9]): 0 (Herbicidal rate of 5% or less (almost no effect)); N: redroot pigweed, herbicidal effect grade (redroot pigweed [10]): 0 (Herbicidal rate of 5% or less (almost no effect)); O: lambsquarters, herbicidal effect grade (lambsquarters [11]): 0 (Herbicidal rate of 5% or less (almost no effect)); P: chickweed, herbicidal effect grade (chickweed [12]): 1 (Herbicidal rate of 5% or more and less than 20%); R: persian speedwell, herbicidal effect grade (persian speedwell [13]): 2 (Herbicidal rate of 20% or more and less than 40%)
